Test system: SupT1 cells
Experiment: Proliferation of T-ALL cells treated with SRC-family kinase inhibitor
Format: cell-based, human
Conditions: PTCRA-dependent T-ALL cell lines

## Cc1ccc(-c2nn(C(C)(C)C)c3ncnc(N)c23)cc1 [PP1]
  anti-proliferative response: dose-dependent anti-proliferative response

Reference: US11814428B2, “Anti-PTCRA antibody-drug conjugates and uses thereof” (REGENERON PHARMACEUTICALS, INC., priority 2019, dated 2023)
